From patent US20240174679A1, “HETEROAROYL AMIDES AS LRRK2 INHIBITORS, PHARMACEUTICAL COMPOSITIONS, AND USES THEREOF” (MERCK SHARP & DOHME LLC, priority 2021, published 2024)

Each compound was assayed against GST tagged truncated human mutant G2019S LRRK2 (Homo sapiens (Human), UniProt Q5S007, G2019S) (assay: LRRK2 Km ATP LanthaScreen Assay). Conditions: 134 μM ATP (Km ATP), LRRKtide substrate, negative log of mean IC50 (molar).
Format: biochemical
Description: Unless otherwise noted, all reactions are magnetically stirred. Unless otherwise noted, when diethyl ether is used in the experiments described below, it is Fisher ACS certified material and is stabilized with BHT. Unless otherwise noted, “concentrated” and/or “solvent removed under reduced pressure” means evaporating the solvent from a solution or mixture using a rotary evaporator or vacuum pump. Unless otherwise noted, flash chromatography is carried out on a Teledyne Isco (Lincoln, NE), Analogix (Burlington, WI), or Biotage (Stockholm, SWE) automated chromatography system using a commercially available cartridge as the column. Columns may be purchased from Teledyne Isco, Analogix, Biotage, Varian (Palo Alto, CA), or Supelco (Bellefonte, PA) and are usually filled with silica gel as the stationary phase. Reversed phase preparative HPLC conditions, where used, can be found at the end of each experimental section. Aqueous solutions were concentrated on a Genevac (Ipswich, ENG) or by freeze-drying/lyophilization. Unless otherwise noted, all LRRK2 pIC50 data presented in tables refers to the LRRK2 G2019S Km ATP LanthaScreen™ assay (Life Technologies Corp., Carlsbad, CA) that is described in the Biological Assay section.
Biological Assay: LRRK2 Km ATP LanthaScreen™ Assay
Compound potency against LRRK2 kinase activity was determined using LanthaScreen™ technology from Life Technologies Corporation (Carlsbad, CA) using a GST20 tagged truncated human mutant G2019S LRRK2 in the presence of the fluorescein-labeled peptide substrate LRRKtide® (LRRK2 phosphorylated ezrin/radixin/moesin (ERM)), also from Life Technologies. The data presented for the Km ATP LanthaScreen™ Assay represents mean IC50 values based on several test results and may have reasonable deviations depending on the specific conditions and reagents used. Km is the Michaelis constant of an enzyme and is defined as the concentration of native substrate (ATP for a kinase) which permits the enzyme to achieve half Vmax (Vmax=rate of reaction when the enzyme is saturated with substrate). IC50 (half-maximal inhibitory concentration) represents the concentration of inhibitor required to inhibit LRRK2 kinase activity by 50%. Assays were performed in the presence of 134 μM ATP (Km ATP). Upon completion, the assay was stopped, and phosphorylated substrate detected with a terbium (Tb)-labeled anti-pERM antibody (cat. no. PV4898). The compound dose response was prepared by diluting a 10 mM stock of compound to a maximum concentration of 9.99 μM in 100% DMSO, followed by custom fold serial dilution in DMSO nine times. 20 nL of each dilution was spotted via a Labcyte Echo onto a 384-well black-sided plate (Corning 3575) followed by 15 μL of a 1.25 nM enzyme solution in 1× assay buffer (50 mM Tris pH 8.5, 10 mM MgCl2, 0.01% Brij-35, 1 mM EGTA, 2 mM dithiothreitol, 0.05 mM sodium orthovanadate). Following a 15-min incubation period at rt, the kinase reaction was started with the addition of 5 μL of 400 nM fluorescein-labeled LRRKtide® (LRRK2 phosphorylated ezrin/radixin/moesin (ERM)) peptide substrate and 134 μM ATP solution in 1× assay buffer. The reaction was allowed to progress at ambient temperature for 90 min. The reaction was then stopped by the addition of 20 μL of TR-FRET Dilution Buffer (Life Technologies, Carlsbad, CA) containing 2 nM Tb-labeled anti-phospho LRRKtide® (LRRK2 phosphorylated ezrin/radixin/moesin (ERM)) antibody and 10 mM EDTA (Life Technologies, Carlsbad, CA). After an incubation period of 1 h at rt, the plate was read on an EnVision® multimode plate reader (Perkin Elmer, Waltham, MA) with an excitation wavelength of 337 nm (Laser) and a reading emission at both 520 and 495 nm. Compound IC50 values were interpolated from nonlinear regression best-fits of the log of the final compound concentration, plotted as a function of the 520/495-nm emission ratio using activity base “Abase”). Abase uses a 4 parameter (4P) logistic fit based on the Levenberg-Marquardt algorithm. […]

Sequence of GST tagged truncated human mutant G2019S LRRK2 (Q5S007 970-2527 G2019S): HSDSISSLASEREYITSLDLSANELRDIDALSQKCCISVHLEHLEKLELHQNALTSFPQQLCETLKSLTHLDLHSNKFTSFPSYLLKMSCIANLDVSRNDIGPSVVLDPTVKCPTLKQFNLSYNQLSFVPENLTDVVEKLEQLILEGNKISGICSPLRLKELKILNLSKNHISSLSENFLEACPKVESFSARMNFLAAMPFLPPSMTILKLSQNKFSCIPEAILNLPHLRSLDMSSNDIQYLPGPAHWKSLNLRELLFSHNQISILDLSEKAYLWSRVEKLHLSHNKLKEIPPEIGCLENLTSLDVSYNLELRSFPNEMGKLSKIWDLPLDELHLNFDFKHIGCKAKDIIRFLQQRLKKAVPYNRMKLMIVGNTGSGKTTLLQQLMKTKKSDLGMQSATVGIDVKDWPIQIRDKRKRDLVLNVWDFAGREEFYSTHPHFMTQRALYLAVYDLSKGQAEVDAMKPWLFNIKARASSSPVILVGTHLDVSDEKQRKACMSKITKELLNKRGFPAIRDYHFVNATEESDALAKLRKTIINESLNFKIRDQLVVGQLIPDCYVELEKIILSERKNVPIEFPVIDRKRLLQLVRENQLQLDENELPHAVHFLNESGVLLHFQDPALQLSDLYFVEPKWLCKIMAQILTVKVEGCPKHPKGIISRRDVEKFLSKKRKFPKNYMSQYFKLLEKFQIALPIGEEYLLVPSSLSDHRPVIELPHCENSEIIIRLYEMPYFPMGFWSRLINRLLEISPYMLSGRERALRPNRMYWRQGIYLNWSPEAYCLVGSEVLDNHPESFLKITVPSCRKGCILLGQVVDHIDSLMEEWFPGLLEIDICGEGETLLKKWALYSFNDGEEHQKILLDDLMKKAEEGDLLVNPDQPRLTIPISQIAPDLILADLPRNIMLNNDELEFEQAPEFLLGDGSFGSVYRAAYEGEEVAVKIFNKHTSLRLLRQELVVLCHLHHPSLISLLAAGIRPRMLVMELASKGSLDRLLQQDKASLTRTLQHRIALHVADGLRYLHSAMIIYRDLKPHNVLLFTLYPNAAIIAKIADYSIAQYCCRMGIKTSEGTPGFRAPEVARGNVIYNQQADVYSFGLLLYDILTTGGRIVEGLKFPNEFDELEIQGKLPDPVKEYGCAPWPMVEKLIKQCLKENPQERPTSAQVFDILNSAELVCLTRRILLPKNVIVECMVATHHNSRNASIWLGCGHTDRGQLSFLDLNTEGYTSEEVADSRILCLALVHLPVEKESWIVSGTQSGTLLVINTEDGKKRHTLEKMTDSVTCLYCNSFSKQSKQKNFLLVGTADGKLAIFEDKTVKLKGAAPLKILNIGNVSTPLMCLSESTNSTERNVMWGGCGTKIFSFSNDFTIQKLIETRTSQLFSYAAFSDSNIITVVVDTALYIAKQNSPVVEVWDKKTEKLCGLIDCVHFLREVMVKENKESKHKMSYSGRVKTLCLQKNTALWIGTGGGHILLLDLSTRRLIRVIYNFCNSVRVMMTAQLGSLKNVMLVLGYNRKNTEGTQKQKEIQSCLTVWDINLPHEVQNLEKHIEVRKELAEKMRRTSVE

Compound	LRRK2 pIC50
O=C(Nc1cnn(C2CCC2)c1)c1csc(-c2cn[nH]c2)n1 [Example 1-1, N-(1-Cyclobutyl-1H-pyrazol-4-yl)-2-(1H-pyrazol-4-yl)thiazole-4-carboxamide]	8.01
COc1nn(CC2CC2(F)F)cc1NC(=O)c1csc(-c2cn[nH]c2)n1 (stereo not shown) [Example 7-39, N-{1-[(2,2-difluorocyclopropyl)methyl]-3-methoxy-1H-pyrazol-4-yl}-2-(1H-pyrazol-4-yl)-1,3-thiazole-4-carboxamide]	7.74
O=C(Nc1cn(CC2CCCO2)nc1C(F)F)c1csc(-c2cn[nH]c2)n1 (stereo not shown) [Example 7-12, N-[3-(difluoromethyl)-1-(tetrahydrofuran-2-ylmethyl)-1H-pyrazol-4-yl]-2-(1H-pyrazol-4-yl)-1,3-thiazole-4-carboxamide]	7.68
COC(=O)c1nn(C)cc1NC(=O)c1csc(-c2cn[nH]c2)n1 [Example 1-19, methyl 1-methyl-4-({[2-(1H-pyrazol-4-yl)-1,3-thiazol-4-yl]carbonyl}amino)-1H-pyrazole-3-carboxylate]	8.66
O=C(Nc1cnn(CC2CCC2)c1)c1cccc(-c2ccc(F)cc2F)n1 [Example 9-11, N-[1-(cyclobutylmethyl)-1H-pyrazol-4-yl]-6-(2,4-difluorophenyl) pyridine-2-carboxamide]	5.63
O=C(Nc1cn(CC2CCCCO2)nc1C(F)F)c1csc(-c2cn[nH]c2)n1 (stereo not shown) [Example 7-5, N-[3-(difluoromethyl)-1-(tetrahydro-2H-pyran-2-ylmethyl)-1H-pyrazol-4-yl]-2-(1H-pyrazol-4-yl)-1,3-thiazole-4-carboxamide]	7.32
O=C(Nc1cnn(C2CCC2)c1)c1csc(Nc2ccccc2)n1 [Example 4-14, N-(1-cyclobutyl-1H-pyrazol-4-yl)-2-(phenylamino)-1,3-thiazole-4-carboxamide]	6.12
COc1nn(CC(F)(F)F)cc1NC(=O)c1csc(-c2cnn(C)c2)n1 [Example 12-6, N-[3-methoxy-1-(2,2,2-trifluoroethyl)-1H-pyrazol-4-yl]-2-(1-methyl-1H-pyrazol-4-yl)-1,3-thiazole-4-carboxamide]	7.06
Cc1[nH]ncc1-c1nc(C(=O)Nc2cnn(C3CCC3)c2)cs1 [Example 9-18, N-(1-cyclobutyl-1H-pyrazol-4-yl)-2-(5-methyl-1H-pyrazol-4-yl)-1,3-thiazole-4-carboxamide]	7.59
Cn1cc(NC(=O)c2csc(-c3cn[nH]c3)n2)c(C(F)(F)F)n1 [Example 1-40, N-[1-methyl-3-(trifluoromethyl)-1H-pyrazol-4-yl]-2-(1H-pyrazol-4-yl)-1,3-thiazole-4-carboxamide]	7.10
N#CC1CCC(Cn2cc(NC(=O)c3csc(-c4cn[nH]c4)n3)cn2)CC1 (stereo not shown) [Example 7-37, N-{1-[(4-cyanocyclohexyl)methyl]-1H-pyrazol-4-yl}-2-(1H-pyrazol-4-yl)-1,3-thiazole-4-carboxamide]	7.72
O=C(Nc1cnn(CC2C3CCC2CNC3)c1)c1csc(-c2cn[nH]c2)n1 (stereo not shown) [Example 7-43, N-{1-[(3-azabicyclo[3.2.1]octan-8-yl)methyl]-1H-pyrazol-4-yl}-2-(1H-pyrazol-4-yl)-1,3-thiazole-4-carboxamide]	6.87
COc1nn(C)cc1NC(=O)c1csc(-c2cn[nH]c2)n1 [Example 1-14, N-(3-methoxy-1-methyl-1H-pyrazol-4-yl)-2-(1H-pyrazol-4-yl)-1,3-thiazole-4-carboxamide]	7.13
CSc1nc(C(=O)Nc2cnn(C3CCC3)c2)cs1 [Example 4-5, N-(1-cyclobutyl-1H-pyrazol-4-yl)-2-(methylsulfanyl)-1,3-thiazole-4-carboxamide]	5.82
Cc1cnccc1-n1cc(NC(=O)c2csc(-c3cn[nH]c3)n2)cn1 [Example 8-2, N-[1-(3-methylpyridin-4-yl)-1H-pyrazol-4-yl]-2-(1H-pyrazol-4-yl)-1,3-thiazole-4-carboxamide]	7.74
CC1COc2c(-c3cccc(C(=O)Nc4cnn(CC5CCC5)c4)n3)cnn2C1 (stereo not shown) [Example 9-7, N-[1-(cyclobutylmethyl)-1H-pyrazol-4-yl]-6-(6-methyl-6,7-dihydro-5H-pyrazolo[5,1-b][1,3]oxazin-3-yl)pyridine-2-carboxamide]	6.87
O=C(Nc1cnn(CC2CCC2)c1)c1cccc(-c2csc3ccccc23)n1 [Example 9-31, 6-(1-benzothiophen-3-yl)-N-[1-(cyclobutylmethyl)-1H-pyrazol-4-yl]pyridine-2-carboxamide]	5.18
O=C(Nc1cnn(C2CCC2)c1)c1csc(-c2ccccc2)n1 [Example 4-9, N-(1-cyclobutyl-1H-pyrazol-4-yl)-2-phenyl-1,3-thiazole-4-carboxamide]	6.70
Cn1cc(NC(=O)c2csc(-c3cn[nH]c3)n2)c(C(F)F)n1 [Example 1-15, N-[3-(difluoromethyl)-1-methyl-1H-pyrazol-4-yl]-2-(1H-pyrazol-4-yl)-1,3-thiazole-4-carboxamide]	7.79
O=C(Nc1cnn(C2CC2)c1)c1cccc(-c2cnn(CC(F)(F)F)c2)n1 [Example 4-1, N-(1-Cyclopropyl-1H-pyrazol-4-yl)-6-(1-(2,2,2-trifluoroethyl)-1H-pyrazol-4-yl)picolinamide]	7.98
Cn1cc(NC(=O)c2csc(-c3cn[nH]c3)n2)c(OCC(F)F)n1 [Example 1-26, N-[3-(2,2-difluoroethoxy)-1-methyl-1H-pyrazol-4-yl]-2-(1H-pyrazol-4-yl)-1,3-thiazole-4-carboxamide]	7.56
CC(C)n1cc(NC(=O)c2csc(-c3cn[nH]c3)n2)cn1 [Example 1-20, N-[1-(1-methylethyl)-1H-pyrazol-4-yl]-2-(1H-pyrazol-4-yl)-1,3-thiazole-4-carboxamide]	7.68
Cn1ccc(-c2cccc(C(=O)Nc3cnn(CC4CCC4)c3)n2)c1 [Example 9-32, N-[1-(cyclobutylmethyl)-1H-pyrazol-4-yl]-6-(1-methyl-1H-pyrrol-3-yl)pyridine-2-carboxamide]	6.59
Cn1cc(NC(=O)c2csc(-c3cn[nH]c3)n2)c(-c2ccncc2)n1 [Example 1-9, N-(1-methyl-3-pyridin-4-yl-1H-pyrazol-4-yl)-2-(1H-pyrazol-4-yl)-1,3-thiazole-4-carboxamide]	7.09
O=C(Nc1cnn(C2CCC2)c1C1CC1)c1csc(-c2cn[nH]c2)n1 [Example 3-3, N-(1-cyclobutyl-5-cyclopropyl-1H-pyrazol-4-yl)-2-(1H-pyrazol-4-yl)-1,3-thiazole-4-carboxamide]	7.16
O=C(Nc1cnn(C2CCC2)c1)c1csc(-c2cnn3c2CCC3)n1 [Example 9-3, N-(1-cyclobutyl-1H-pyrazol-4-yl)-2-(5,6-dihydro-4H-pyrrolo[1,2-b]pyrazol-3-yl)-1,3-thiazole-4-carboxamide]	8.01
CC(C)Cn1cc(NC(=O)c2csc(-c3cn[nH]c3)n2)c(C(F)F)n1 [Example 7-23, N-[3-(difluoromethyl)-1-(2-methylpropyl)-1H-pyrazol-4-yl]-2-(1H-pyrazol-4-yl)-1,3-thiazole-4-carboxamide]	7.59
O=C(Nc1cn(CC(F)F)nc1C(F)F)c1csc(-c2cn[nH]c2)n1 [Example 7-2, N-[1-(2,2-difluoroethyl)-3-(difluoromethyl)-1H-pyrazol-4-yl]-2-(1H-pyrazol-4-yl)-1,3-thiazole-4-carboxamide]	7.58
